For two substances, MIC results are on record in patent US9265709B2, “Use of peptides as antidandruff agents” (L'OREAL, priority 2009, dated 2016).

Ends that are not written are not given here.

This test has as its system M. furfur. In words: Antimicrobial activity (MIC) micromethod in microplates on microorganisms responsible for dandruff. The test is classed as cell-based. The following applies: Sabouraud medium with 10% olive oil, 24 to 48 hours at 32.5° C., OD 620 nm vs control without peptide, peptide tested at 0.1%, 0.25%, 0.5% and 1%. Here is the method: The antimicrobial activity of the peptides used according to the invention may be evaluated by measuring their minimum inhibitory concentration (MIC). Decreasing concentrations of peptides are contacted with standardised inoculum of microorganisms in a culture medium suitable for growth of said microorganisms in exponential growth phase. After incubation at the suitable temperature for the microorganism, the growth is evaluated by an OD (620 nm) measurement. […] The MIC obtained may be compared with the same measurement performed only with solvent (without the peptide) or with a compound of known antibiotic activity. This test may also be used to test the selectivity of the peptides used. This method can be used to determine the effect of the test peptide on a beneficial microorganism of the microbial flora of the scalp such as Staphylococcus epidermidis. Peptides that give on the strains responsible for desquamative disorders of the hair and/or the scalp (e.g., M. furfur) better inhibition than on the beneficial strains (e.g., S. epidermidis) will be selected.
The test has been carried using a micromethod in microplates. […]
After incubation of the microplate from 24 to 48 hours at 32.5° C., optical density at 620 nm has been measured. […]

Substance “FLSLIPHAINAVSAIAKHF-NH2 (listed as Phyllomedusa azurea) [PS-7]” yielded an MIC of less than 0.1%.

“GLWSTIKNVGKEAAIAAGKAALGAL-NH2 (listed as Phyllomedusa hypochondrialis) [DPh-1]” gave an MIC of less than 0.1%.
